These results are taken from ChEMBL document CHEMBL4334492, “Nectriatide, a Potentiator of Amphotericin B Activity from Nectriaceae sp. BF-0114” (J Nat Prod, 2019).

Structures are written as SMILES. Active and inactive are the calls of the source. The rule behind the calls is not given here. Non-standard residues stand in square brackets, D forms with d. Residues, ends and D or L forms follow the SMILES beside them. *: point of attachment. NMeY = CN[C@@H](Cc1ccc(O)cc1)C(=O)O; 2Abz = Nc1ccccc1C(=O)O; tBu = CC(C)(C)*

For series [1], the system named is Candida albicans. Description: Potentiation of amphotericin-induced antifungal activity against Candida albicans ATCC 90029 assessed as fold reduction in amphotericin MIC at 32 ug/ml after 24 hrs by broth microdilution method relative to amphotericin MIC alone. It counts as functional.
In series [2] the test system is Candida albicans. As to the kind of experiment: Potentiation of amphotericin-induced antifungal activity against Candida albicans ATCC 90029 assessed as amphotericin MIC at 32 ug/ml after 24 hrs by broth microdilution method (reference value: 0.5 ug/ml). It counts as functional. The conditions noted are these: ATCC 90029, 24 h.
Series [3] relates to Candida albicans. As to the kind of experiment: Potentiation of amphotericin-induced antifungal activity against Candida albicans ATCC 90029 assessed as fold reduction in amphotericin MIC at 16 ug/ml after 24 hrs by broth microdilution method relative to amphotericin MIC alone. It counts as functional.
The subject of series [4] is Candida albicans. Description: Potentiation of amphotericin-induced antifungal activity against Candida albicans ATCC 90029 assessed as fold reduction in amphotericin MIC at 8 ug/ml after 24 hrs by broth microdilution method relative to amphotericin MIC alone. It counts as functional.
Series [5] deals with Candida albicans. As to the kind of experiment: Potentiation of amphotericin-induced antifungal activity against Candida albicans ATCC 90029 assessed as amphotericin MIC at 16 ug/ml after 24 hrs by broth microdilution method (reference value: 0.5 ug/ml). It is filed as functional. The conditions noted are these: ATCC 90029, 24 h.
Series [6] relates to Candida albicans. Description: Potentiation of amphotericin-induced antifungal activity against Candida albicans ATCC 90029 assessed as amphotericin MIC at 8 ug/ml after 24 hrs by broth microdilution method (reference value: 0.5 ug/ml). It is filed as functional. Particulars: ATCC 90029, 24 h.
In series [7] the test system is Candida albicans. As to the kind of experiment: Potentiation of miconazole-induced antifungal activity against Candida albicans ATCC 90029 at 64 ug/ml after 24 hrs by broth microdilution assay. It is filed as functional, organism-based.
The subject of series [8] is HEK293. Description: Cytotoxicity against human HEK293 cells at 128 ug/ml after 24 hrs by MTT assay. It counts as cell-based. Particulars: hek293, 24 h.
In series [9] the test system is Jurkat. Description: Cytotoxicity against human Jurkat cells at 128 ug/ml after 24 hrs by MTT assay. It is filed as cell-based.
Series [10] concerns HaCaT. As to the kind of experiment: Cytotoxicity against human HaCaT cells assessed as reduction in cell viability at 128 ug/ml after 24 hrs by MTT assay. It is filed as cell-based.
Series [11] has as its system HCT-116. As to the kind of experiment: Cytotoxicity against human HCT116 cells at 128 ug/ml after 24 hrs by MTT assay. It is filed as cell-based. Particulars: hct-116, 24 h.
The subject of series [12] is HEK293. Description: Cytotoxicity against human HEK293 cells assessed as reduction in cell viability after 24 hrs by MTT assay. It counts as cell-based. Particulars: HEK293, 24 h.
The subject of series [13] is Candida albicans. Description: Potentiation of micafungin-induced antifungal activity against Candida albicans ATCC 90029 at 64 ug/ml after 24 hrs by broth microdilution assay. It is filed as functional, organism-based.
Series [14] has as its system Aspergillus niger. Description: Potentiation of amphotericin-induced antifungal activity against Aspergillus niger ATCC 6275 assessed as fold reduction in amphotericin MIC at 32 ug/ml after 48 hrs by broth microdilution method relative to amphotericin MIC alone. It counts as functional.
Series [15] has as its system Rhizopus arrhizus. As to the kind of experiment: Potentiation of amphotericin-induced antifungal activity against Rhizopus oryzae NBRC4705 assessed as fold reduction in amphotericin MIC at 32 ug/ml after 24 hrs by broth microdilution assay relative to amphotericin MIC alone. It counts as functional.
Series [16] has as its system Rhizopus arrhizus. Description: Potentiation of amphotericin-induced antifungal activity against Rhizopus oryzae NBRC4705 assessed as fold reduction in amphotericin MIC at 16 ug/ml after 24 hrs by broth microdilution assay relative to amphotericin MIC alone. It is filed as functional.
Series [17] relates to Rhizopus arrhizus. As to the kind of experiment: Potentiation of amphotericin-induced antifungal activity against Rhizopus oryzae NBRC4705 assessed as fold reduction in amphotericin MIC at 8 ug/ml after 24 hrs by broth microdilution assay relative to amphotericin MIC alone. It is filed as functional.
In series [18] the test system is Rhizopus arrhizus. Description: Potentiation of amphotericin-induced antifungal activity against Rhizopus oryzae NBRC4705 assessed as fold reduction in amphotericin MIC at 4 ug/ml after 24 hrs by broth microdilution assay relative to amphotericin MIC alone. It is filed as functional.
The test system of series [19] is Rhizopus arrhizus. Description: Potentiation of amphotericin-induced antifungal activity against Rhizopus oryzae NBRC4705 assessed as fold reduction in amphotericin MIC at 2 ug/ml after 24 hrs by broth microdilution assay relative to amphotericin MIC alone. It counts as functional.
Series [20] has as its system Saccharomyces cerevisiae. Description: Potentiation of amphotericin-induced antifungal activity against Saccharomyces cerevisiae S288c assessed as fold reduction in amphotericin MIC at 32 ug/ml after 24 hrs by broth microdilution assay relative to amphotericin MIC alone. It counts as functional.
Series [21] has as its system Saccharomyces cerevisiae. As to the kind of experiment: Potentiation of amphotericin-induced antifungal activity against Saccharomyces cerevisiae S288c assessed as fold reduction in amphotericin MIC at 16 ug/ml after 24 hrs by broth microdilution assay relative to amphotericin MIC alone. It is filed as functional.
Series [22] concerns Saccharomyces cerevisiae. Description: Potentiation of amphotericin-induced antifungal activity against Saccharomyces cerevisiae S288c assessed as fold reduction in amphotericin MIC at 8 ug/ml after 24 hrs by broth microdilution assay relative to amphotericin MIC alone. It is filed as functional.
In series [23] the test system is Saccharomyces cerevisiae. Description: Potentiation of amphotericin-induced antifungal activity against Saccharomyces cerevisiae S288c assessed as fold reduction in amphotericin MIC at 4 ug/ml after 24 hrs by broth microdilution assay relative to amphotericin MIC alone. It is filed as functional.
Series [24] has as its system Saccharomyces cerevisiae. As to the kind of experiment: Potentiation of amphotericin-induced antifungal activity against Saccharomyces cerevisiae S288c assessed as fold reduction in amphotericin MIC at 2 ug/ml after 24 hrs by broth microdilution assay relative to amphotericin MIC alone. It is filed as functional.
Series [25] has as its system Aspergillus niger. As to the kind of experiment: Potentiation of amphotericin-induced antifungal activity against Aspergillus niger ATCC 6275 assessed as amphotericin MIC at 32 ug/ml after 48 hrs by broth microdilution method (reference value: 0.25 ug/ml). It counts as functional. Particulars: ATCC 6275, 48 h.
In series [26] the test system is Rhizopus arrhizus. As to the kind of experiment: Potentiation of amphotericin-induced antifungal activity against Rhizopus oryzae NBRC4705 assessed as amphotericin MIC at 32 ug/ml after 24 hrs by broth microdilution assay (reference value: 1 ug/ml). It counts as functional. Particulars: NBRC4705, 24 h.
Series [27] concerns Rhizopus arrhizus. Description: Potentiation of amphotericin-induced antifungal activity against Rhizopus oryzae NBRC4705 assessed as amphotericin MIC at 16 ug/ml after 24 hrs by broth microdilution assay (reference value: 1 ug/ml). It is filed as functional. Particulars: NBRC4705, 24 h.
Series [28] deals with Rhizopus arrhizus. As to the kind of experiment: Potentiation of amphotericin-induced antifungal activity against Rhizopus oryzae NBRC4705 assessed as amphotericin MIC at 8 ug/ml after 24 hrs by broth microdilution assay (reference value: 1 ug/ml). It counts as functional. Particulars: NBRC4705, 24 h.
The subject of series [29] is Rhizopus arrhizus. As to the kind of experiment: Potentiation of amphotericin-induced antifungal activity against Rhizopus oryzae NBRC4705 assessed as amphotericin MIC at 4 ug/ml after 24 hrs by broth microdilution assay (reference value: 1 ug/ml). Particulars: NBRC4705, 24 h. It is filed as functional.
For series [30], the system named is Rhizopus arrhizus. Description: Potentiation of amphotericin-induced antifungal activity against Rhizopus oryzae NBRC4705 assessed as amphotericin MIC at 2 ug/ml after 24 hrs by broth microdilution assay (reference value: 1 ug/ml). Particulars: NBRC4705, 24 h. It counts as functional.
Series [31] has as its system Saccharomyces cerevisiae. Description: Potentiation of amphotericin-induced antifungal activity against Saccharomyces cerevisiae S288c assessed as amphotericin MIC at 32 ug/ml after 24 hrs by broth microdilution assay (reference value: 0.5 ug/ml). It is filed as functional.
Series [32] relates to Saccharomyces cerevisiae. As to the kind of experiment: Potentiation of amphotericin-induced antifungal activity against Saccharomyces cerevisiae S288c assessed as amphotericin MIC at 16 ug/ml after 24 hrs by broth microdilution assay (reference value: 0.5 ug/ml). It is filed as functional.
The subject of series [33] is Saccharomyces cerevisiae. As to the kind of experiment: Potentiation of amphotericin-induced antifungal activity against Saccharomyces cerevisiae S288c assessed as amphotericin MIC at 8 ug/ml after 24 hrs by broth microdilution assay (reference value: 0.5 ug/ml). It is filed as functional.
Series [34] has as its system Saccharomyces cerevisiae. As to the kind of experiment: Potentiation of amphotericin-induced antifungal activity against Saccharomyces cerevisiae S288c assessed as amphotericin MIC at 4 ug/ml after 24 hrs by broth microdilution assay (reference value: 0.5 ug/ml). It counts as functional.
The subject of series [35] is Saccharomyces cerevisiae. As to the kind of experiment: Potentiation of amphotericin-induced antifungal activity against Saccharomyces cerevisiae S288c assessed as amphotericin MIC at 2 ug/ml after 24 hrs by broth microdilution assay (reference value: 0.5 ug/ml). It counts as functional.
The subject of series [36] is Saccharomyces cerevisiae. Description: Potentiation of amphotericin-induced antifungal activity against Saccharomyces cerevisiae S288c assessed as amphotericin MIC after 24 hrs by broth microdilution assay (reference value: 0.5 ug/ml). It counts as functional, organism-based.
Series [37] has as its system Rhizopus arrhizus. As to the kind of experiment: Potentiation of amphotericin-induced antifungal activity against Rhizopus oryzae NBRC4705 assessed as amphotericin MIC after 24 hrs by broth microdilution assay (reference value: 1 ug/ml). It is filed as functional, organism-based.

As to `CN[C@@H](Cc1ccc(OC(C)(C)C)cc1)C(=O)Nc1ccccc1C(=O)O`, the Ratio in series [1] came out at 4. The MIC in [2] stood at 0.13 µg/mL.
`CC(C)[C@H]1NC(=O)[C@H](C)NC(=O)c2ccccc2NC(=O)[C@H](Cc2ccc(O)cc2)N(C)C1=O`: the Ratio was determined as 16 in series [1], 8 in [3] and 4 in series [4]. Also, the MIC in series [2] turned out to be 0.031 µg/mL; in series [5], 0.063 µg/mL; in [6] it was 0.13 µg/mL.
Consider `CC(C)[C@@H]1NC(=O)[C@H](C)NC(=O)c2ccccc2NC(=O)[C@H](Cc2ccc(O)cc2)N(C)C1=O`, for which the result in series [7] and in series [13] was inactive. The Activity entry was “Non-Toxic” in series [8]; “Non-Toxic” in series [9]; “Non-Toxic” in [10]; “Non-Toxic” in [11]; “Dose-dependent effect” in series [36]; “Dose-dependent effect” in series [37]. The IC50 in series [12] was over 128 µg/mL. Further, the Ratio in [14] came to 1; in series [15], 4; in series [16], 4; in [17] it was 4; in series [18], 2; in series [19], 2. The Ratio was 16 in [20]; 16 in series [21]; 8 in series [22]; 4 in series [23]; 4 in series [24]; 16 in [1]. In addition, the Ratio in [3] stood at 8; in series [4] it was 4. Further, the MIC in [25] amounted to 0.25 µg/mL; in series [26], 0.25 µg/mL; in series [27], 0.25 µg/mL; in series [28] it was 0.25 µg/mL; in series [29], 0.5 µg/mL; in [30], 0.5 µg/mL. The MIC in [31] came out at 0.031 µg/mL; in series [32], 0.031 µg/mL; in [33], 0.063 µg/mL; in series [34], 0.13 µg/mL; in series [35], 0.13 µg/mL; in series [2], 0.031 µg/mL. For the same compound, the minimum inhibitory concentration (MIC) in series [5] was 0.063 µg/mL; in series [6], 0.13 µg/mL.
As for `CC(C)[C@H](NC(=O)[C@H](C)NC(=O)c1ccccc1N)C(=O)N(C)[C@@H](Cc1ccc(OC(C)(C)C)cc1)C(=O)O` (H-[2Abz]AV[NMeY](tBu)-OH), the Ratio was 4 in series [1], 4 in series [3] and 2 in series [4]. The MIC in [2] was 0.13 µg/mL; in [5], 0.13 µg/mL; in series [6], 0.25 µg/mL.
For `C[C@H](NC(=O)c1ccccc1N)C(=O)O`, in series [1], the Ratio was determined as 4. For the same compound, the MIC in series [2] came to 0.13 µg/mL.
`CC(C)[C@H](N)C(=O)N(C)[C@@H](Cc1ccc(OC(C)(C)C)cc1)C(=O)Nc1ccccc1C(=O)N[C@@H](C)C(=O)O` (H-V[NMeY](tBu)[2Abz]A-OH): the figures for the Ratio in [1], in series [3] and in [4] were 8, 4 and 2, respectively. In addition, the values for the MIC in series [2], in [5] and in [6] were 0.063 µg/mL, 0.13 µg/mL and 0.25 µg/mL, respectively.
